The results in this text go back to PMC6268275, “Use of Spectroscopic, Zeta Potential and Molecular Dynamic Techniques to Study the Interaction between Human Holo-Transferrin and Two Antagonist Drugs: Comparison of Binary and Ternary Systems” (Molecules, 2012).

For the test, the target named is T1, human holo-transferrin (hTf) (Homo sapiens, UniProt P02787).
T1 construct: gene TF; commercial holo (iron-loaded) glycoprotein, Sigma-Aldrich; mature full length, 679 residues, ~79 kDa, N-lobe and C-lobe, no tag stated
Nature of the test: intrinsic fluorescence quenching titration. In kind it is binding. The note with it: double-log, excitation 280 nm, 50 mM potassium phosphate pH 7.4, 298 K. An excerpt: intrinsic fluorescence quenching titration on human holo-transferrin (hTf)

Structures can show the parent of a compound that is named as a salt.

T1 sequence (P02787 20-698): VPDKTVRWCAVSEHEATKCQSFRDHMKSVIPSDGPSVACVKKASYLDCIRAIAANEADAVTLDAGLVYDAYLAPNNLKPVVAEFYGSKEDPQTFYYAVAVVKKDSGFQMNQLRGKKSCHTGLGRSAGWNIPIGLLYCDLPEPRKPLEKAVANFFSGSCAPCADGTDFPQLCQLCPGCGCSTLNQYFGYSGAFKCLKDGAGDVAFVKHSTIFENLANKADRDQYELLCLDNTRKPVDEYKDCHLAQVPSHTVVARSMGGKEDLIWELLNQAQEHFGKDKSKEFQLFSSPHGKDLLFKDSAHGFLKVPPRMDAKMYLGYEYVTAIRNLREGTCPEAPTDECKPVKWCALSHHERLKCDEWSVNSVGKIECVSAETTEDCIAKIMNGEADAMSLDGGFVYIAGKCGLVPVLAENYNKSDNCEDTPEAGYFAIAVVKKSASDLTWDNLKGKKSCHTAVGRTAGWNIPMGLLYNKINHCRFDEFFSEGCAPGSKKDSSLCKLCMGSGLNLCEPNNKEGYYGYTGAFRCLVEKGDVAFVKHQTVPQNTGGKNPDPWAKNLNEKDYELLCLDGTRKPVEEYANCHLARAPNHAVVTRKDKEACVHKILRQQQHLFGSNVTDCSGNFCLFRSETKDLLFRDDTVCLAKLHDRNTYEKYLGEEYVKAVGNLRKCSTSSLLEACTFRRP

Regarding `CC(=O)Oc1ccccc1C(=O)O` [aspirin, 2-acetoxy benzoic acid], under “one site, binary system without ropinirole”, the “K b ( L mol^-1) / λ ex = 280 nM” value is reported as “(7.83 ± 0.02) × 10^3 L mol^-1”.

For `CCCN(CCC)CCc1cccc2c1CC(=O)N2` [ropinirole hydrochloride, 4-[2-(dipropylamino)ethyl]-1,3-dihydro-2H-indol-2-one monohydro-chloride], the “K b ( L mol^-1) / λ ex = 280 nM” value (stronger of two sites, binary system without aspirin) is “(1.69 ± 0.03) × 10^6 L mol^-1”.
